Broadly, the Ki is the dissociation constant of the complex between target and ligand, obtained from inhibition or displacement. Lower therefore signals higher affinity. By half-life is commonly meant the time needed for the level to fall by half in the phase considered. Read a high half-life as slow loss. By IC50 is commonly meant the concentration needed to halve the response being measured. Read a high IC50 as weaker potency in that assay. The term pKB denotes the negative decadic logarithm of the KB, by convention in mol/L.

The target in series [1] is T1, Cysteinyl leukotriene receptor (Homo sapiens, UniProt Q9Y271+Q9NS75).
T1 sequence (Q9Y271 whole entry): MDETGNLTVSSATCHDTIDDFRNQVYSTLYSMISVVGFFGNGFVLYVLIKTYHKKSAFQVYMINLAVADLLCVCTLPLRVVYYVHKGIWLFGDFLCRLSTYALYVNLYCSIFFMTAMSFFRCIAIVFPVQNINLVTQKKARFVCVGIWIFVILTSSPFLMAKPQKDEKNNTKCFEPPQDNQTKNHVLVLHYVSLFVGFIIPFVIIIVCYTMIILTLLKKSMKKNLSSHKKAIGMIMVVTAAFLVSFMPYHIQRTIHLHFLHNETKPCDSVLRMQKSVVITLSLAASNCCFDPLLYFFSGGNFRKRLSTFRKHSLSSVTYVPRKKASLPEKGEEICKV
T1 sequence (Q9NS75 whole entry): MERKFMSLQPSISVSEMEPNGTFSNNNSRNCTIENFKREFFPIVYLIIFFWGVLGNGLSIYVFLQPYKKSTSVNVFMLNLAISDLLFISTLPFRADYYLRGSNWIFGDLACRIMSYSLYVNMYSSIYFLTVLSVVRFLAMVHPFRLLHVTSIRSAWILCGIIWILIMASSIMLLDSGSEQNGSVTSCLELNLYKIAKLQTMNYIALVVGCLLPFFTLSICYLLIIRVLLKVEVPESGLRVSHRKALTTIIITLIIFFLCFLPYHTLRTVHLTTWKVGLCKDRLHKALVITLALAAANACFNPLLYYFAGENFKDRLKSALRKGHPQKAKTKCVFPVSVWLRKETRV
Briefly: Binding affinity against Cysteinyl leukotriene D4 receptor. It counts as protein assay.

Series [2] can be described thus: Phase 1 oral half life was determined. It counts as ADME, organism-based. The note with it: human, in vivo.
Series [3] deals with Cavia porcellus. Briefly: Compound was tested for in vivo inhibition on gp AA bronchospasm. The series is classed as functional. To be noted: Bronchiole.
Series [4] has as its system Cavia porcellus. Briefly: Compound was tested for in vivo inhibition on gp antigen bronchospasm. The series is classed as functional. The note with it: Bronchiole.
The species entered for series [5] is Homo sapiens. Briefly: Compound was tested for in vitro inhibition on human whole blood. The series is classed as functional.
For series [6], the system named is Mus musculus. Briefly: Compound was tested for in vivo inhibition on mouse AA ear edema. The series is classed as functional.
The species named for series [7] is Homo sapiens. Kind of series: Compound was tested for in vitro inhibition on human PMNL. The series is classed as functional.
A further series concerns RBL-1. Briefly: Compound was tested for in vitro inhibition on broken RBL-1. The note with it: Rattus norvegicus. It counts as functional.
Series [8] relates to Rattus norvegicus. Briefly: Compound was tested for in vivo inhibition on rat peritoneal anaphylaxis. It counts as functional.
Series [9] deals with Homo sapiens. Kind of series: Fold shift in LTD4 dose response curve following 250 mg oral dose. The series is classed as functional.
Series [10] addresses T2, Cysteinyl leukotriene receptor 1 (Homo sapiens, UniProt Q9Y271).
T2 sequence (Q9Y271 whole entry): T1 sequence (Q9Y271 whole entry)
Briefly: Compound was tested for inhibitory activity against LTD4 (leukotriene). It counts as functional.

For series [11], the species on record is Cavia porcellus. Briefly: Compound was tested for LTD4 induced guinea pig trachea contraction. It counts as functional.
Series [12] has as its system Homo sapiens. Briefly: Compound was shown 8 fold shift in LTD4 dose response curve 2 hours after 250 mg oral dose. It counts as functional.
Series [13] relates to Cavia porcellus. Kind of series: Compound was tested in vivo for LTB4 induced neutrophil chemotaxis in guinea pig(orally) at duration 5.5 h. To be noted: po. The series is classed as functional.
The species named for series [14] is Homo sapiens. Kind of series: Compound was tested in vitro for inhibitory activity in LTB4 induced neutrophil degranulation. The series is classed as functional.
Series [15] deals with Mus musculus. Briefly: Compound was tested in vivo inhibitory activity against PMA induced ear edema. The series is classed as functional.
Series [16] concerns Homo sapiens. Briefly: Compound was evaluated for LTD4 induced bronchoconstriction (shift in dose response curve 2 hr after 40 mg oral administration). It counts as functional.
Series [17] relates to Homo sapiens. Briefly: Compound was evaluated for LTD4 induced bronchoconstriction (shift in dose response curve 2 hr after 40 mg oral administration) shift persisted for 24 hrs. It counts as functional.
Series [18] is filed under the species Cavia porcellus. Kind of series: Compound was evaluated for LTD4 induced guinea pig trachea contraction. To be noted: read-out: pA2 (converted).
Series [19] relates to Homo sapiens. Kind of series: Compound was tested for fold shift in LTD4 dose response curve following 1 g oral dose. The series is classed as functional.
Series [20] in a line: phase 1 oral half life at a dose 400 mg. It counts as ADME, organism-based. To be noted: human, in vivo.
For series [21], the system named is Rattus norvegicus. Briefly: Compound was tested for in vivo inhibition on rat PMNL. The series is classed as functional.
Series [22] concerns Cavia porcellus. Briefly: Compound was tested in vivo inhibitory activity against PMA induced ear edema in guinea pig (orally). The series is classed as functional. The note with it: po.
The subject of series [23] is Cavia porcellus. Kind of series: compound was tested in vivo for LTB4 induced neutrophil chemotaxis in guinea pig(orally) at duration 24 h. It counts as functional. The note with it: po.
The species entered for series [24] is Homo sapiens. Briefly: Compound was tested in vitro for inhibitory activity in LTB4 induced chemotaxis. The series is classed as functional, organism-based.
Series [25] has as its target Leukotriene B4 receptor 1 (Homo sapiens, UniProt Q15722). Kind of series: Compound was tested for inhibitory activity against human neutrophil LTB4 receptor binding.
Series [26] deals with Cavia porcellus. Kind of series: Compound was tested in vivo for LTB4 induced neutrophil chemotaxis in guinea pig.(orally) at duration 21 h. It counts as functional. The note with it: po.
For series [27], the species on record is Homo sapiens. Kind of series: Compound was tested in vitro for inhibitory activity in LTB4 induced neutrophil degranulation. It counts as functional, organism-based.
In series [28] the test system is Cavia porcellus. Briefly: Compound was tested in vivo inhibitory activity against LTB4 induced neutrophil influx in guinea pig(orally). The series is classed as functional. The note with it: po.
Series [29] has as its system Cavia porcellus. Briefly: Compound was tested in vivo inhibitory activity against LTB4 induced neutropenia in guinea pig.(orally). It counts as functional. The note with it: po.
The species named for series [30] is Homo sapiens. Briefly: Compound was tested in vitro inhibitory activity against human neutrophil degranulation. The series is classed as functional.
The subject of series [31] is Homo sapiens. Briefly: Fold shift in LTD4 dose response curve following 280 mg intravenous dose in asthmatic patients. The series is classed as functional.
The target of series [32] is T2, Cysteinyl leukotriene receptor 1. Briefly: Compound were tested for inhibitory activity against Cysteinyl leukotriene D4 receptor.
The species named for series [33] is Cavia porcellus. Briefly: Compound was tested for LTD4 induced guinea pig trachea contraction. It counts as functional.
Series [34] deals with Cavia porcellus. Briefly: Compound was tested in vivo inhibitory activity against LTB4 induced bronchoconstriction (intravenous). The series is classed as functional.
Series [35] relates to Cavia porcellus. Kind of series: Compound was tested in vivo inhibitory activity against LTB4 induced bronchoconstriction (orally). The series is classed as functional. The note with it: po.

Sequence of Leukotriene B4 receptor 1 (Q15722 whole entry): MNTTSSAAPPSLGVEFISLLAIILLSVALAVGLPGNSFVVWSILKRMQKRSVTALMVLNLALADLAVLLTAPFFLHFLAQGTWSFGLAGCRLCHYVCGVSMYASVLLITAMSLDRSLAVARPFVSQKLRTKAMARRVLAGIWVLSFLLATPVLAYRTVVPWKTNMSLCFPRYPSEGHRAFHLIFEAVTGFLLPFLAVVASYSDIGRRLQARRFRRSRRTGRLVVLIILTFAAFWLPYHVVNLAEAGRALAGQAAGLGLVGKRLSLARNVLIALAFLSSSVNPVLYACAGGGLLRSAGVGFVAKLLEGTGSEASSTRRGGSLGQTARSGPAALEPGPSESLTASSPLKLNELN

For `CCCc1c(OCCCS(=O)(=O)c2ccc(C(=O)CCC(=O)O)cc2)ccc(C(C)=O)c1O` [L-648051], in [1], the Ki is listed as 6200 nM.
Consider `CC(c1cc2ccccc2s1)N(O)C(N)=O` (stereo not drawn) [ZILEUTON], for which the half-life in [2] is 3 h. The ED50 in the series with Cavia porcellus [3] amounted to 18 mg/kg; in the series on Cavia porcellus [4], 12 mg/kg; in the series on Mus musculus [6] it was 31 mg/kg; in the series with Rattus norvegicus [8] it was 3 mg/kg. Besides, the IC50 in the series filed under Homo sapiens [5] was found to be 700 nM; in the series filed under Homo sapiens [7], 600 nM; with RBL-1, 100 nM.
Take `O=C(O)c1ccccc1Nc1cccc(OCc2ccc3ccccc3n2)c1` [SR-2640]: in the series with Homo sapiens [9], the Activity is listed as less than 2. The same compound yielded an IC50 in [10] of 23 nM.
The compound `O=C(O)CC[C@@H](/C=C\Cc1ccc(OCCCCOc2ccccc2)cc1)Sc1ccc(C(=O)O)cc1` yielded a pKB in the series filed under Cavia porcellus [11] of 8.4. For the same compound, the Activity in the series on Homo sapiens [12] is on record as 8.
As for `CCCc1c(OCCCOc2ccc(C(C)=O)c(OC)c2CCC)ccc2c1OC(C(=O)O)CC2` (stereo not drawn) [SC-41390], the ED50 with Cavia porcellus [13] came to 1.7 mg/kg; in the series with Mus musculus [15], 4200 nM. In the series filed under Homo sapiens [14], half-maximal inhibition (IC50) required 1080 nM.
With `COc1cc(C(=O)NS(=O)(=O)c2ccccc2C)ccc1Cc1cn(C)c2ccc(NC(=O)OC3CCCC3)cc12` [ZAFIRLUKAST], the Activity turned out to be 117 with Homo sapiens [16] and 5 with Homo sapiens [17]. Moreover, the Kb in the series filed under Cavia porcellus [18] is 0.316 nM.
`CCCc1c(OCCCSc2ccc([C@@H](O)[C@H](C)CC(=O)O)cc2)ccc(C(C)=O)c1O` [L-649923] yielded a Ki in [1] of 400 nM. Also, the Activity with Homo sapiens [19] turned out to be 3.8.
Compound `CC(=O)N(O)C/C=C/c1cccc(Oc2ccccc2)c1` had a half-life in series [20] of 2 h. For the same compound, the ED50 in the series with Cavia porcellus [4] was determined as 10 mg/kg; in the series on Rattus norvegicus [21], 54 mg/kg. This compound came in with an IC50 in the series filed under Homo sapiens [7] of 40 nM.
With `CCCc1c(OCCCOc2ccc(C(=O)NC)c(OC)c2CC2CC2)ccc2c1O[C@H](CCC(=O)O)CC2`, the results for the ED50 in the series on Cavia porcellus [22] and with Cavia porcellus [23] were less than 2.5 mg/kg and 0.07 mg/kg, respectively. The IC50 in the series filed under Homo sapiens [24] was found to be 32 nM; in the series listed under Homo sapiens [14], 19 nM; in series [25], 1.3 nM.
In the series with Cavia porcellus [26], `CCCc1c(OCCCOc2ccc(C(=O)NC)c(OC)c2CC2CC2)ccc2c1OC(CCC(=O)O)CC2` (stereo not drawn) returned an ED50 of 0.09 mg/kg. The values for the IC50 (in the series filed under Homo sapiens [24]; in the series filed under Homo sapiens [27]; in [25]) were 38 nM, 29 nM and 1.5 nM, respectively.
As for `COc1ccc(/C=C/CCCCOc2cccc(OCCCCC(=O)O)c2CCC(=O)O)cc1`, the ED50 is 5.3 mg/kg with Cavia porcellus [28] and 25.6 mg/kg with Cavia porcellus [29]. In the series filed under Homo sapiens [30], this compound came in with an IC50 of 1600 nM.
With `CN(C)C(=O)CCSC(SCCC(=O)[O-])c1cccc(/C=C/c2ccc3ccc(Cl)cc3n2)c1.[Na+]` (stereo not drawn), the Ki in series [1] is listed as 0.2 nM. Further, in the series with Homo sapiens [31], the Activity is more than 83.
Turning to `CN(C)C(=O)CCS[C@H](SCCC(=O)[O-])c1cccc(/C=C/c2ccc3ccc(Cl)cc3n2)c1.[Na+]`, in [32], it took 3.1 nM to reach half-maximal inhibition (IC50). Further, the pKB in the series filed under Cavia porcellus [33] was 8.8.
As for `CCCc1c(OCCCOc2cc(O)c(C(C)=O)cc2CC)ccc2c1OC(C(=O)O)CC2` (stereo not drawn), the figures for the ED50 in the series with Cavia porcellus [34] and with Cavia porcellus [35] were 0.23 mg/kg and 0.5 mg/kg, respectively.

Values taken from ChEMBL document CHEMBL1129361, “Modulators of leukotriene biosynthesis and receptor activation” (J Med Chem, 1996).
